According to patent US8546113B2, “Hydrogen peroxide-forming NADH oxidase and DNA encoding the same” (Keio University, priority 2008, dated 2013):

Experiments:
[1] = test system: NADH oxidase isolated from Brevibacterium sp.; experiment: Substrates and activity levels in the presence of cofactors; format: biochemical, Brevibacterium sp. KU1309
Method: (§1) Enzyme activity was evaluated by measuring the absorbance at 340 nm, which decreases as a result of oxidization of NADH to NAD^+, with the use of an absorptiometer. A reaction was induced by adding an enzyme solution to a mixture of 0.1 mM NADH, 100 mM Tris-HCL (pH 8.8), and 500 mM ammonium sulfate. Herein, “1 unit” is defined as the amount of an enzyme that allows oxidation of 1μ mole of NADH per minute.

[2] = test system: NADH oxidase isolated from Brevibacterium sp.; experiment: H2O2 formation confirmation and quantification (o-dianisidine/peroxidase, Abs460); format: biochemical, Brevibacterium sp. KU1309; conditions: NADH 75, 100 and 150 μM
Method: NOX is classified into the H2O by-product type and the H2O2 by-product type. With the use of the assay method shown in FIG. 8A, H2O2 formation confirmation and H2O2 quantification were carried out. First, the reaction was carried out with the use of hydrogen peroxide, o-dianisidine, and peroxidase at known concentrations. The standard curve of [H2O2] vs Abs460 was created. The symbol “♦” denotes each obtained plotted point on the curve in FIG. 8B. […] The reaction was completed after the elapse of a sufficient reaction time. The completion of the reaction was confirmed with the use of an absorptiometer. The obtained reaction solution (50 μl) was added to a 100 mM phosphate buffer (pH 7.0) containing o-dianisidine and peroxidase, followed by absorbance determination. The symbol “□” denotes each obtained plotted point on the curve in FIG. 8B. […] It is understood that the values were identical to the relevant [H2O2] concentrations.

[3] = test system: NADH oxidase isolated from Brevibacterium sp.; experiment: Kinetic analysis of NADH oxidation (Lineweaver-Burk plot, absorbance at 340 nm); format: biochemical, Brevibacterium sp. KU1309; conditions: for Km: NOX 0.28 ug/ml
Method: as §1
For kinetic analysis, the reaction rate was determined at an NADH concentration of 10 μM to 100 μM. A Lineweaver-Burk plot was created based on the obtained values. The reaction was carried out as described below. A reaction solution (NOX: 0.28 ug/ml; NADH: 10 μM to 100 μM; (NH4)2SO4: 500 mM; and Tris-HCl: 100 mM (pH 8.8)) was introduced into an absorptiometer cell, followed by determination of the absorbance at 340 nm. Accordingly, the reaction rate was determined.

[4] = test system: NADH oxidase isolated from Brevibacterium sp.; conditions: inhibitor 1 mM, 3 minutes at room temperature; NADH 10 μM; (NH4)2SO4 500 mM; Tris-HCl pH 8.8; not stated whether % inhibition or % relative activity
Method: The enzyme solution was added to 100 mM Tris-HCl (pH 8.8). Further, an inhibitor was added thereto to a final concentration of 1 mM, followed by incubation at room temperature for 3 minutes. Then, NADH and (NH4)2SO4 were added thereto so as to result in concentrations of 10 μM and 500 mM, respectively, followed by determination of the absorbance at 340 nm. Accordingly, the reaction rate was determined.

[5] = test system: NADH oxidase isolated from Brevibacterium sp.; experiment: Effects of salts on enzyme activity; format: biochemical, Brevibacterium sp. KU1309
Method: Reaction was carried out with the addition of different salts, followed by determination of absorbance at 340 nm. Then, the reaction rate was determined. […] Then, the effects of ammonium salt concentration upon enzyme activity were examined in the manner described below. The reaction was carried out in the presence of ammonium sulfate at a concentration of 0 M to 4.35 M. Thereafter, the relative value of the reaction rate was calculated.

[6] = substrate NADH, cofactor added at 1 mM
[7] = as substrate, no cofactor added, NADH without cofactor = 100
[8] = NADH 10 μM to 100 μM, (NH4)2SO4 500 mM, Tris-HCl 100 mM (pH 8.8)

Q: Which results are given for `Cc1cc2nc3c(=O)[nH]c(=O)nc-3n(C[C@H](O)[C@H](O)[C@H](O)COP(=O)(O)OP(=O)(O)OC[C@H]3O[C@@H](n4cnc5c(N)ncnc54)[C@H](O)[C@@H]3O)c2cc1C` [FAD]?
A: activation caused by FAD or FMN [1]: not observed; Specific activity (%) [1, 6]: 101%

Q: Which results are given for `NC(=O)C1=CN([C@@H]2O[C@H](COP(=O)(O)OP(=O)(O)OC[C@H]3O[C@@H](n4cnc5c(N)ncnc54)[C@H](OP(=O)(O)O)[C@@H]3O)[C@@H](O)[C@H]2O)C=CC1` [NADPH]?
A: degree of NADPH-oxidizing activity [1]: low; Specific activity (%) [1, 7]: 2%

Q: Which “hydrogen peroxide formed on oxidization of 1 mol of NADH” value [2] does the source give for “reduced nicotinamide adenine dinucleotide [NADH]” here?
A: 1 mol

Q: And the “Specific activity (%)” value [1, 7]?
A: 100%

Q: And the Kcat ([3]; Calculated with a molecular weight of 101.68 kDa)?
A: 15.01 s⁻¹

Q: What about the Vmax [3, 8] of the same molecule?
A: 8.86 Unit/mq

Q: And the Km [3, 8]?
A: 22 µM

Q: For `Cc1cc2nc3c(=O)[nH]c(=O)nc-3n(C[C@H](O)[C@H](O)[C@H](O)COP(=O)(O)O)c2cc1C` [FMN], which “activation caused by FAD or FMN” value [1] is on record?
A: not observed

Q: What about the “Specific activity (%)” value [1, 6] of the same molecule?
A: 104%

Q: How did the “activity inhibited (FIG. 6 relative activity values)” value [4] turn out when `[Ag+]` [Ag^+] was run?
A: 37%

Q: What does the source list for `N.N.O=S(=O)(O)O` [ammonium salt, ammonium sulfate]?
A: effect of addition of salt on enzyme activity [5]: increases; ammonium salt concentration ([NH4+]) at maximum activity ([5]; ammonium sulfate 0 M to 4.35 M): 3.0 M

Q: For `[Cu+2]` [Cu^2+], which “activity inhibited (FIG. 6 relative activity values)” value [4] is on record?
A: 42%

Q: With `[Zn+2]` [Zn^2+] as the molecule, how does the “activity inhibited (FIG. 6 relative activity values)” value [4] read?
A: 39%

B1: enzyme of the present invention: hydrogen peroxide-forming NADH oxidase from Brevibacterium sp. KU1309, homodimer, amino acid sequence of SEQ ID NO: 18 (protein, listed as Brevibacterium sp.)
chain: VSDELTYDLVVLGGGTGGYAAALRAAELDMKVALIERDKVGGTCLHRGCVPTKALLHAAEVAETAKNSETFGIEAELQGIDIAKVLEYKDGVITRNYKGLQGLVKARGIDTYFGTGKLVGKDTVEVTGEDGNHTVKGTNVLLSTGSTSKTIGLEVTDRVITSTEALQLDKVPSSAIVLGGGVIGVEFASVWNSFGAEVTIVEGLKHLVANEDETISKNLERAFKKRKIKFKLGVMFKGVEETADGVKVTLEDGSTLEAEYLLVAVGRGPVTEGFGFEEQGIPMDRGFVLASERLHTGVGNIYACGDIVPGLQLAHRAFGQGIFIAEEIAGLNPAPVVESGIPRVTYCEPEIFSVGLSSAQAEEKYGKDQVESLEYNLGGNGKSVILNTTGLIKVIREKDGPVVGVHGIGARLSEQAGEAQLIVNWEAFPEEVAQLIHAHPTQNEALGEAHLALAGKPLHFHS
modifications: homodimer
Q: Which results are given for B1?
A: hydrogen peroxide formed on oxidization of 1 mol of NADH [2]: 1 mol; Km [3, 8]: 22 µM
